One data set concerns P. falciparum Dd2. Put plainly: Anti-plasmodial growth inhibition, SYBR green I-based DNA quantification. Format: cell-based. To be noted: Plasmodium falciparum, 72 h incubation, n=3. The method, then:
(§1) Select compounds described herein were evaluated for structure-activity analyses for anti-plasmodial activity in vitro. For Dd2 EC50 (M), calculations were for n=3. For HepG2 EC50 (M), calculations were for n=1. For the human microsomal stability determination, t was 60 minutes.
Different dilutions of the compound in RPMI 1640 (Life Technologies) from a stock of 10 mM in dimethyl sulfoxide (DMSO) were added to the culture at a 1% parasitemia and 2% hematocrit in 96-well black plates (Santa Cruz Biotechnology). Maximum DMSO concentration in the culture never exceeded 0.25%. Chloroquine at 1 μM was used as a positive control to determine the baseline value. Following 72 h incubation at 37° C., the ability of the compounds to inhibit growth of the parasite was determined by a SYBR green I-based DNA quantification assay (See Bennett et al., 2004, Chemother. 48, 1807-1810; see also Johnson et al., 2007, Antimicrob. Agents. Chemother. 51, 1926-1933; Smilkstein et al., 2004, Antimicrob. Agents. Chemother. 48, 1803-1806). EC50 was calculated (n=3) from a dose response curve that was generated from a concentration range of 0-20 μM using GraphPad Prism v5.0.

Data set [1] relates to HepG2 human hepatoma cells. In words: HepG2 cytotoxicity, MTS cell proliferation assay. In kind it is cell-based. To be noted: 48 h, n=1. The method, then:
as §1
Selected compounds were evaluated for cytotoxicity using HepG2 human hepatoma cells. A 384-well clear bottom plate was seeded with 2,500 cells/well and incubated for 24 h. Serial dilutions of the compound (were added to the plate and plates were incubated for an additional 48 h. Viability of cells were assessed by MTS [(3-(4,5-dimethylthiazol-2-yl)-5-(3-carboxymethoxyphenyl)-2-(4-sulfophenyl)-2H-tetrazolium) cell proliferation assay (CellTiter 96® Aqueous non-radioactive cell proliferation assay, Promega) (See Cory et al., Cancer Communications, 3, 1991, p. 207-212).

Data set [2] can be described thus: Plasma pharmacokinetics and liver distribution study in female BALB/c mice. Format: in vivo, mouse. To be noted: 100 mg/kg, female BALB/c mice; for Tmax: mouse, plasma, read-out: Tmax (plasma). The method, then:
A plasma pharmacokinetics and liver distribution study of selected compounds, including Pyrrolopyridine-008 (2015-foleyc-216), Pyrrolopyridine-D20-ent (2015-foleyc-217), and Pyrrolopyridine-M03 (2015-foleyc-218), in female BALB/c mice was conducted following a single intraperitoneal and oral administration. […] The blood samples were collected from a set of […] mice at each time point in labeled micro centrifuge tube containing K2EDTA as anticoagulant. Plasma samples were separated by centrifugation at 4000 rpm for 10 min and stored below −70° C. until bioanalysis. After collection of blood sample, animals were humanely euthanized by carbon dioxide asphyxiation to collect liver from Group 1 and Group 2 at all the time points. The collected tissues were rinsed in PBS and were homogenized with nine times of liver weight in ice cold phosphate buffer saline (pH 7.4) and stored below −70° C. until bio-analysis. Total homogenate volume was ten times the tissue weight. All samples were processed for analysis by protein precipitation using acetonitrile and analyzed with fit-for-purpose LC-MS/MS method (LLOQ: 2.01 ng/mL for plasma and 50.30 ng/g for liver). Pharmacokinetic parameters were calculated using the non-compartmental analysis tool of Phoenix WinNonlin® (Version 6.3).

The test system of data set [3] is Trypanosoma cruzi parasites. In words: Trypanosoma cruzi in vitro IC50 (structure-activity analyses). Format: cell-based. To be noted: infection with Trypanosoma cruzi parasites for 72 hours and treatment with the compound for 72 hours. The method, then: Select compounds described herein were evaluated for structure-activity analyses in vitro.
The next data set can be described thus: Cytotoxicity (Table 1). Format: cell-based.
Where [4] appears, read: ip, single intraperitoneal dose.

As usually defined, the EC50 is the concentration at which the effect is half-maximal. Read a high EC50 as lower potency in that assay. In general, Tmax refers to the time at which the peak concentration occurs. In general, IC50 refers to the concentration needed to halve the response being measured. Low values mean inhibition by little substance, high ones a need for much substance.

Where two headings read alike, the source gives them in different places.

For `CC(C)(C)[S@@+]([O-])N1Cc2cc(C(=O)NCc3ccc4c(c3)OCO4)nc(-c3ccccc3)c2[C@H]1CCO` [2015-foleyc-217, (R)-N-(benzo[d][1,3]dioxol-5-ylmethyl)-2-((R)-tert-butylsulfinyl)-3-(2-hydroxyethyl)-4-phenyl-2,3-dihydro-1H-pyrrolo[3,4-c]pyridine-6-carboxamide], the EC50 stood at 2.19 ± 0.32 µM in the data set with P. falciparum Dd2 and 63 µM in data set [1]. Moreover, the Tmax in data set [2] (setting [4]) amounted to 60 min; in data set [2] (single oral dose), 30 min. Besides, the “plasma concentrations quantifiable till” value in data set [2] (single intraperitoneal dose) and in data set [2] (single oral dose) was 12 h each time.

For the compound `CC(C)(C)[S@@+]([O-])N1Cc2cc(C(=O)NCc3ccccc3F)nc(-c3ccccc3)c2[C@H]1CCO` [2015-foleyc-218, (R)-2-((R)-tert-butylsulfinyl)-N-(2-fluorobenzyl)-3-(2-hydroxyethyl)-4-phenyl-2,3-dihydro-1H-pyrrolo[3,4-c]pyridine-6-carboxamide], the EC50 is 1.45 ± 0.28 µM in the data set on P. falciparum Dd2 and over 100 µM in data set [1]. Also, the results for the Tmax in data set [2] (setting [4]) and in data set [2] (single oral dose) were 60 min and 30 min, respectively. The “plasma concentrations quantifiable till” value in data set [2] (single intraperitoneal dose) and in data set [2] (single oral dose) was 12 h in each case.

As to `CC(C)(C)[S@@+]([O-])N1Cc2cc(C(=O)NCC(F)(F)F)nc(-c3cccc(-c4cccnc4)c3)c2[C@H]1CCO` [2015-foleyc-237, (R)-2-((R)-tert-butylsulfinyl)-3-(2-hydroxyethyl)-4-(3-(pyridin-3-yl)phenyl)-N-(2,2,2-trifluoroethyl)-2,3-dihydro-1H-pyrrolo[3,4-c]pyridine-6-carboxamide], the figures for the concentration for a half-maximal effect (EC50) (in the data set with P. falciparum Dd2; in data set [1]) were 5.84 ± 0.94 µM and over 100 µM, respectively.

As to `CC(C)NC(=O)N1Cc2cc(C(=O)NCc3ccc4c(c3)OCO4)nc(-c3cccc(-c4cc5ccccc5o4)c3)c2[C@H]1CCO` [2015-foleyc-241, (R)-N^6-(benzo[d][1,3]dioxol-5-ylmethyl)-4-(3-(benzofuran-2-yl)phenyl)-3-(2-hydroxyethyl)-N^2-isopropyl-1,3-dihydro-2H-pyrrolo[3,4-c]pyridine-2,6-dicarboxamide], the EC50 in the data set on P. falciparum Dd2 is 4.99 ± 0.59 µM; in data set [1] it was over 100 µM.

`CC(C)(C)[S@@+]([O-])N1Cc2cc(C(N)=O)nc(-c3cccc(-c4cccnc4)c3)c2[C@H]1CCO` [2015-foleyc-247]: the results for the EC50 (in the data set with P. falciparum Dd2; in data set [1]) were 1.48 ± 0.14 µM and over 100 µM, respectively.

With `CC(C)NC(=O)N1Cc2cc(C(N)=O)nc(-c3cccc(-c4cc5ccccc5o4)c3)c2[C@H]1CCO` [2015-foleyc-248, (R)-4-(3-(benzofuran-2-yl)phenyl)-3-(2-hydroxyethyl)-N^2-isopropyl-1,3-dihydro-2H-pyrrolo[3,4-c]pyridine-2,6-dicarboxamide], the figures for the half-maximal effective concentration (EC50) (with P. falciparum Dd2; in data set [1]) were over 25 µM and over 100 µM, respectively.

As for `CC(C)NC(=O)N1Cc2cc(C(=O)NCc3ccc4c(c3)OCO4)nc(-c3cccc(-c4cccnc4)c3)c2[C@H]1CCO` [2015-foleyc-253, (R)-N^6-(benzo[d][1,3]dioxol-5-ylmethyl)-3-(2-hydroxyethyl)-N^2-isopropyl-4-(3-(pyridin-3-yl)phenyl)-1,3-dihydro-2H-pyrrolo[3,4-c]pyridine-2,6-dicarboxamide], the figures for the EC50 (in the data set on P. falciparum Dd2; in data set [1]) were 5.73 ± 0.33 µM and 62 µM, respectively.

For `CC(C)NC(=O)N1Cc2cc(C(=O)NCc3ccccc3F)nc(-c3cccc(-c4cccnc4)c3)c2[C@H]1CCO` [2015-foleyc-254, (R)-N^6-(2-fluorobenzyl)-3-(2-hydroxyethyl)-N^2-isopropyl-4-(3-(pyridin-3-yl)phenyl)-1,3-dihydro-2H-pyrrolo[3,4-c]pyridine-2,6-dicarboxamide], the concentration for a half-maximal effect (EC50) with P. falciparum Dd2 amounted to 9.95 ± 0.89 µM; in data set [1], 71 µM.

For `CC(C)NC(=O)N1Cc2cc(C(=O)NCC(F)(F)F)nc(-c3cccc(-c4cccnc4)c3)c2[C@H]1CCO` [2015-foleyc-255, (R)-3-(2-hydroxyethyl)-N2-isopropyl-4-(3-(pyridin-3-yl)phenyl)-N6-(2,2,2-trifluoroethyl)-1,3-dihydro-2H-pyrrolo[3,4-c]pyridine-2,6-dicarboxamide], the EC50 in the data set with P. falciparum Dd2 was 15.5 ± 0.75 µM; in data set [1] it was over 100 µM.

Take `CC(C)NC(=O)N1Cc2cc(C(=O)NCC(F)(F)F)nc(-c3ccccc3)c2[C@H]1CCO` [2015-foleyc-267, (R)-3-(2-hydroxyethyl)-N^2-isopropyl-4-phenyl-N^6-(2,2,2-trifluoroethyl)-1,3-dihydro-2H-pyrrolo[3,4-c]pyridine-2,6-dicarboxamide]: the EC50 in the data set with P. falciparum Dd2 is 3.5 ± 0.97 µM; in data set [1] it was over 100 µM.

In the case of `CC(C)NC(=O)N1Cc2cc(C(=O)NCc3ccccc3F)nc(-c3cccc(-c4cc5ccccc5o4)c3)c2[C@H]1CCO` [2015-foleyc-268, (R)-4-(3-(benzofuran-2-yl)phenyl)-N^6-(2-fluorobenzyl)-3-(2-hydroxyethyl)-N^2-isopropyl-1,3-dihydro-2H-pyrrolo[3,4-c]pyridine-2,6-dicarboxamide], the half-maximal effective concentration (EC50) is 10.2 ± 0.94 µM with P. falciparum Dd2 and over 100 µM in data set [1].

In turn, `CCOC(=O)c1cc2c(c(-c3cccc(C#CCN(C)C)c3)n1)CN([S@+]([O-])C(C)(C)C)C2` [Compound 49, Ethyl (R)-2-(tert-butylsulfinyl)-4-(3-(3-(dimethylamino)prop-1-yn-1-yl)phenyl)-2,3-dihydro-1H-pyrrolo[3,4-c]pyridine-6-carboxylate] gave an IC50 in data set [3] of 0.862 µM. Further, the Cytotoxicity in “Cytotoxicity (Table 1)” is over 10 µM.

Turning to `CCOC(=O)c1cc2c(c(-c3cccc(Br)c3)n1)[C@@H](CCO)N([S@+]([O-])C(C)(C)C)C2` [Compound 51, Ethyl (R)-4-(3-bromophenyl)-2-((R)-tert-butylsulfinyl)-3-(2-hydroxyethyl)-2,3-dihydro-1H-pyrrolo[3,4-c]pyridine-6-carboxylate], in data set [3], the IC50 was over 10 µM. Besides, the Cytotoxicity in “Cytotoxicity (Table 1)” is over 10 µM.

`CN(C)CC#Cc1cccc(-c2nc(C(=O)NCc3ccc4c(c3)OCO4)cc3c2CN([S@+]([O-])C(C)(C)C)C3)c1` [Compound 57, (R)-N-(Benzo[d][1,3]dioxol-5-ylmethyl)-2-(tert-butylsulfinyl)-4-(3-(3-(dimethylamino)prop-1-yn-1-yl)phenyl)-2,3-dihydro-1H-pyrrolo[3,4-c]pyridine-6-carboxamide] showed an IC50 in data set [3] of 0.495 µM. In “Cytotoxicity (Table 1)”, this compound yielded a Cytotoxicity of over 10 µM.

In data set [3], `CC(C)(C)[S@@+]([O-])N1Cc2cc(C(=O)NCc3ccc4c(c3)OCO4)nc(-c3cccc(Br)c3)c2[C@H]1CCO` [Compound 77, (R)-N-(Benzo[d][1,3]dioxol-5-ylmethyl)-4-(3-bromophenyl)-2-((R)-tert-butylsulfinyl)-3-(2-hydroxyethyl)-2,3-dihydro-1H-pyrrolo[3,4-c]pyridine-6-carboxamide] showed an IC50 of over 10 µM. Moreover, the Cytotoxicity in the data set “Cytotoxicity (Table 1)” was over 10 µM.

Compound `CN(C)CC#Cc1cccc(-c2nc(C(=O)NCc3ccc4c(c3)OCO4)cc3c2[C@@H](CCO)N([S@@+]([O-])C(C)(C)C)C3)c1` [Compound 85, (R)-N-(Benzo[d][1,3]dioxol-5-ylmethyl)-2-((S)-tert-butylsulfinyl)-4-(3-(3-(dimethyl-amino)prop-1-yn-1-yl)phenyl)-3-(2-hydroxyethyl)-2,3-dihydro-1H-pyrrolo[3,4-c]pyridine-6-carboxamide] came in with a half-inhibitory concentration (IC50) in data set [3] of 0.0437 µM. The compound also displayed a Cytotoxicity in “Cytotoxicity (Table 1)” of over 10 µM.

Source of the values: patent publication US12071436B2, “Anti-parasitic compounds and uses thereof” (Memorial Sloan-Kettering Cancer Center, priority 2016, dated 2024).
